Results: patent US12448394B2, “Heterocyclic pyrazole derivatives as type III receptor tyrosine kinase inhibitors” (DEVELOPMENT CENTER FOR BIOTECHNOLOGY, priority 2019, dated 2025)
pIC50: −log10 of the molar value.

What was measured:
Type in all cases: biochemical
MET kinase = molecular target: T1, MET kinase (Homo sapiens, UniProt P08581); assay: MET kinase assay (AlphaScreen, counter screen); settings: read-out: Ranking of IC50 values, MET
T1 construct: purchased SignalChem
How it was run: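 Recombinant MET kinase (1 ng) phosphorylated biotinylated poly(Glu4:Tyr1) with […] ATP (so in the source) in MOPS pH 7.0 buffer with 10 mM MgCl2, 45 min at 30 °C, stopped with EDTA. Product read by AlphaScreen; IC50 from serial dilutions run in duplicate.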

FLT3 kinase = molecular target: T2, FLT3 kinase (Homo sapiens, UniProt P36888); assay: FLT3 kinase assay (AlphaScreen); settings: read-out: Ranking of IC50 values, FLT3
T2 construct: purchased SignalChem
T2 sequence (P36888 27-993): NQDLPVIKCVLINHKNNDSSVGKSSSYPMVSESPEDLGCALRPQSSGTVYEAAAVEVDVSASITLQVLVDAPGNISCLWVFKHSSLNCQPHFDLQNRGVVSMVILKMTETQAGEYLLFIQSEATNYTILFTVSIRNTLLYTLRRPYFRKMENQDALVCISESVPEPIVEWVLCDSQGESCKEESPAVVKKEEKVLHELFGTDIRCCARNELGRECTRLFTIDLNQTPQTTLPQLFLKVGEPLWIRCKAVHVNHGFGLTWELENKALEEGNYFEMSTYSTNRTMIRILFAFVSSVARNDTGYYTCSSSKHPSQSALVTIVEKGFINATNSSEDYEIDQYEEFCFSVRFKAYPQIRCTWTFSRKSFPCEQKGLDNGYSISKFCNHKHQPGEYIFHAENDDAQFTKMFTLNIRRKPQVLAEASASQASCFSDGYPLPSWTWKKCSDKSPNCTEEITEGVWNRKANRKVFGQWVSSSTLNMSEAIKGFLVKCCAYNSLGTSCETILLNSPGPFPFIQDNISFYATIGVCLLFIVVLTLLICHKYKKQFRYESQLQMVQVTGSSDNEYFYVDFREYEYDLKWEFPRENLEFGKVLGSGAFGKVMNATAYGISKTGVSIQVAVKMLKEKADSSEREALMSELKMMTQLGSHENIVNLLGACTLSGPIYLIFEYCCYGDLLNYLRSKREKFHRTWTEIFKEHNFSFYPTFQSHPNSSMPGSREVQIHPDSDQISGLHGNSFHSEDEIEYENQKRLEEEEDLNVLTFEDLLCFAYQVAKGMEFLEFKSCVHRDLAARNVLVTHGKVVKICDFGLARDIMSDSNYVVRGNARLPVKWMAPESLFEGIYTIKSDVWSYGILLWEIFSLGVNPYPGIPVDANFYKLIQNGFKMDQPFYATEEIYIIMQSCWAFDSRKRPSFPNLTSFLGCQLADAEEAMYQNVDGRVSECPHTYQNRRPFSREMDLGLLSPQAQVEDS
How it was run: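 Recombinant FLT3 (1.5 ng) phosphorylated biotinylated poly(Glu4:Tyr1) with 10 μM ATP in MOPS pH 7.0 buffer containing 10 mM MgCl2, 30 min at 30 °C, stopped with EDTA. Product detected by AlphaScreen; IC50 from duplicate serial dilutions.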

PDGFRα kinase = molecular target: T3, PDGFRα kinase (Homo sapiens, UniProt P16234); assay: PDGFRα kinase assay (AlphaScreen); settings: read-out: Ranking of IC50 values, PDGFRα
T3 construct: purchased SignalChem
T3 sequence (P16234 24-1089): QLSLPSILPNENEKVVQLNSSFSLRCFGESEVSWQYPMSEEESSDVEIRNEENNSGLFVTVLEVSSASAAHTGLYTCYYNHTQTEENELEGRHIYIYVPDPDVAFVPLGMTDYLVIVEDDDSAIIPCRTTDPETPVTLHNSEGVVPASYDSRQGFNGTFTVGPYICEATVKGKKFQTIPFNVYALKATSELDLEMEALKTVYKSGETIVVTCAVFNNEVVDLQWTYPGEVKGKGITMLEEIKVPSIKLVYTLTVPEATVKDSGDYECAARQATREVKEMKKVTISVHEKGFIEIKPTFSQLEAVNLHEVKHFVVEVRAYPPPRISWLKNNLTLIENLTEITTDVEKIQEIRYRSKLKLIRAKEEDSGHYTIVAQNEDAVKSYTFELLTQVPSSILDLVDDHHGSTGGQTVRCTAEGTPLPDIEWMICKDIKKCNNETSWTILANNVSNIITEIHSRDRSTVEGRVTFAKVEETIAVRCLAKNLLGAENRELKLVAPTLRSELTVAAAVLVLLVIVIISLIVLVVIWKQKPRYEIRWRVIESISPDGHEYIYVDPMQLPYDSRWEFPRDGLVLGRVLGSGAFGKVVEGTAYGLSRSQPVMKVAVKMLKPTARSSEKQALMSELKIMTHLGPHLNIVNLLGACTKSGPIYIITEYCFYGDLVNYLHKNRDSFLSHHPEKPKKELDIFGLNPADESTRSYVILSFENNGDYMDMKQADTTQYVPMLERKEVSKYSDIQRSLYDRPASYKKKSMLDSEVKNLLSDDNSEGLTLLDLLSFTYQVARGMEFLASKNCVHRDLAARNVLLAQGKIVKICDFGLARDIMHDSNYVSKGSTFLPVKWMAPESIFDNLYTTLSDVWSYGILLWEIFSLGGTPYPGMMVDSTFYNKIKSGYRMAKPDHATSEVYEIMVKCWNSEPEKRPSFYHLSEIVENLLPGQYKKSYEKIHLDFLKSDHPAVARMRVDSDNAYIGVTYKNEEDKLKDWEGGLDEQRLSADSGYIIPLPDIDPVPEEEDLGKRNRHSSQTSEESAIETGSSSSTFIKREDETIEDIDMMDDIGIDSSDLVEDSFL
How it was run: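 Recombinant PDGFRα (1.5 ng) phosphorylated biotinylated poly(Glu4:Tyr1) with 10 μM ATP in MOPS pH 7.0 with 10 mM MgCl2, 30 min at 30 °C, stopped with EDTA. Product detected by AlphaScreen; IC50 from serial dilutions run in duplicate.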

T1 sequence (P08581 25-1390): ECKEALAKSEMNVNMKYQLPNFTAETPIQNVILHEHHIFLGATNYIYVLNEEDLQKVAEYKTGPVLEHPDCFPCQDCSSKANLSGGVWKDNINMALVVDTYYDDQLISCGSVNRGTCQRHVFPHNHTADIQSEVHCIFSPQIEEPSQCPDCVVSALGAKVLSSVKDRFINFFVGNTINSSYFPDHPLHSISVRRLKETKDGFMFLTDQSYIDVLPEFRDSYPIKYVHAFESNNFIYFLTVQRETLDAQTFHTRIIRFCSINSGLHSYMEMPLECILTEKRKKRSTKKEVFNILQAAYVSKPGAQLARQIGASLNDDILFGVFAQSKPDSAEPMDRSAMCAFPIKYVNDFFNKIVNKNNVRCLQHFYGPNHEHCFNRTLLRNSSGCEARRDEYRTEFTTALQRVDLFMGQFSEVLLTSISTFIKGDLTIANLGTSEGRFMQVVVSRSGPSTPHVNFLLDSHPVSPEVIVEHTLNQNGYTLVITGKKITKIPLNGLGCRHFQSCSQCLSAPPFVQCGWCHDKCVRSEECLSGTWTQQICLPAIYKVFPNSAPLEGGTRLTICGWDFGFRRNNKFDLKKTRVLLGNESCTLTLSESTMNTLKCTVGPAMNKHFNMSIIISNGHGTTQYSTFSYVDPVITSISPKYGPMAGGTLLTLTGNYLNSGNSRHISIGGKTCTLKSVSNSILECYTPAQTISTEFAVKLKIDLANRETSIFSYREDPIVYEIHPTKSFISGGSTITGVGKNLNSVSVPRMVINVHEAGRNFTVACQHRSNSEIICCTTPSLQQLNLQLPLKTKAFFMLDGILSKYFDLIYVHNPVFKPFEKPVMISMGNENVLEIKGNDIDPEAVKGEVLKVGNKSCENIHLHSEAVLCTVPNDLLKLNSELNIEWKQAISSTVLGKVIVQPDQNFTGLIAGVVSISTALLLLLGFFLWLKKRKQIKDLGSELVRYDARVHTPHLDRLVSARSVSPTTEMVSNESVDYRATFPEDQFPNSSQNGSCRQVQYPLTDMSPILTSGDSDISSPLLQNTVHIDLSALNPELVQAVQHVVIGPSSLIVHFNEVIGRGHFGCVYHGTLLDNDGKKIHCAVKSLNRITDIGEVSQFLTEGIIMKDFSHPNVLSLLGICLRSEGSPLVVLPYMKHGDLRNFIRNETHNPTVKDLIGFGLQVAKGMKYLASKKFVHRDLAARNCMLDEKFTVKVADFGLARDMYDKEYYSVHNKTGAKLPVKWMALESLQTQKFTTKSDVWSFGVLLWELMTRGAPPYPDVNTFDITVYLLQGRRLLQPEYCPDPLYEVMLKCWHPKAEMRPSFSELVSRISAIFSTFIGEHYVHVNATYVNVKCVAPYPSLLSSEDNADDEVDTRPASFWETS

pIC50 (MET kinase) | pIC50 (FLT3 kinase) | pIC50 (PDGFRα kinase) | Structure (SMILES)
< 6.00 | > 9.00 | < 6.00 | Cn1ncc2ccc(-c3n[nH]c4c3Cc3sc(-c5ccc(CCN6CCOCC6=O)cc5)cc3-4)cc21 [Compound 66, 4-(4-(3-(1-methyl-1H-indazol-6-yl)-1,4-dihydro-thieno[2′,3′:4,5]cyclopenta [1,2-c]pyrazol-6-yl)phenethyl)morpholin-3-one]
< 6.00 | > 9.00 | 7.52 to 8.00 | Cn1ncc2ccc(-c3n[nH]c4c3Cc3sc(-c5ccc(CN6CCOCC6)s5)cc3-4)cc21 [Compound 51, 4-((5-(3-(1-methyl-1H-indazol-6-yl)-1,4-dihydro-thieno[2′,3′:4,5]cyclopenta [1,2-c]pyrazol-6-yl)thiophen-2-yl)methyl) morpholine]
< 6.00 | 8.00 to 9.00 | 7.52 to 8.00 | CN1CCN(Cc2cccc(-c3cc4c(s3)Cc3c(-c5ccc6cnn(C)c6c5)n[nH]c3-4)c2)CC1 [Compound 14, 3-(1-methyl-1H-indazol-6-yl)-6-(3-((4-methylpiperazin-1-yl)methyl)phenyl)-1,4-dihydrothieno [2′,3′:4,5]cyclopenta[1,2-c] pyrazole]
< 6.00 | > 9.00 | 8.00 to 9.00 | Cn1ncc2ccc(-c3n[nH]c4c3Cc3sc(-c5ccc(C(=O)N6CCOCC6)cc5)cc3-4)cc21 [Compound 21, (4-(3-(1-methyl-1H-indazol-6-yl)-1,4-dihydro-thieno[2′,3′:4,5]cyclopenta [1,2-c]pyrazol-6-yl)phenyl) (morpholino)methanone]
